From US10464952B2, “Beta-lactamase inhibitors” (priority 2015, dated 2019) come the findings set out here.

In one assay the target is T1, p99 AmpC (Enterobacter cloacae, UniProt P05364).
T1 construct: made in house; host or cells: E. coli BL21(DE3)
Kind of assay: β-lactamase enzyme inhibition assay, p99 AmpC (nitrocefin substrate). Format: biochemical. Here is the method:
(§1) For SHV-5, KPC-2, p99AmpC and OXA-4813-lactamases, E. coli BL21(DE3) bacterial cells carrying expression plasmids (expressed as native untagged proteins) for the individual β-lactamases were grown in 1L of Superbroth (Teknova Inc. Hollister, Calif.) supplemented with 100 μg/ml kanamycin selection and 1×5052 (0.5% glycerol, 0.05% glucose and 0.2% α-lactose) at 35° C. for 18-20 hours. Cells were harvested by centrifugation (4,000 ×g, 4° C., 20 min), re-suspended in 50 ml of 10 mM HEPES pH 7.5 (1/20 of the initial volume). The cells were lysed by sonication (5 pulses of 45 seconds) at 45 Won ice. The lysates were clarified by centrifugation at 10,000 ×g for 40 minutes at 4° C. Samples were diluted 5-fold in 50 mM sodium acetate pH 5.0, stored overnight at 4° C., after which they were centrifuged at 10,000 ×g for 30 minutes to clarify, and filtered through 0.45 μm filters. The samples were loaded onto a 5 ml Capto S sepharose cation exchange column (GE Healthcare) pre-equilibrated with 50 mM sodium acetate pH 5.0. The column was washed with 5 column volumes of 50 mM sodium acetate pH 5.0 to wash out unbound protein and a linear gradient of NaCl (0 to 500 mM) was used to elute the protein (over 16 CV) from the column. Fractions were assayed for β-lactamase activity using Centa (Calbiochem, Gibbstown, N.J.) or Nitrocefin (EMD Millipore chemicals, Darmstadt, Germany) as a reporter β-lactamase substrate for activity in the isolated fractions. Active fractions were pooled, concentrated and further purified by gel filtration chromatography on a Superdex 75 prep grade gel filtration column (GE Healthcare, Piscataway, N.J.) pre -equilibrated in 50 mM Hepes pH 7.5, 150 mM NaCl. Active fractions were pooled, concentrated, and quantitated by BCA protein determination (ThermoScientific, Rockford, Ill.), dialyzed into PBS and frozen at […] in 20% glycerol until use.
(§2) An equal volume of diluted enzyme stock was added, and the plates were incubated at 37° C. for 15 min. Nitrocefin was used as substrate for p99 AmpC, VIM-2 and OXA-48 and dispensed into each well at a final concentration of 100 μM. Absorbance at 486 nm was immediately monitored for 10 min using a Biotek Powerwave XS2 microplate spectrophotometer using the GEN5 software package (Biotek Instruments, Winooski Vt.). In an analogous fashion, imipenem was used as substrate for KPC-2 and Cefotaxime was used for SHV-5, while changes in absorbance upon hydrolysis of the β-lactam ring were monitored at 300 nm and 260 nm respectively in UV-transparent 96-well microtiter assay plates. Maximum rates of hydrolysis were compared to those in control wells (without inhibitors), and percentages of enzyme inhibition were calculated for each concentration of inhibitor. The concentration of inhibitor needed to reduce the initial rate of hydrolysis of substrate by 50% (IC50) was calculated as the residual activity of β-lactamase at 486 nm using GraFit version 7 kinetics software package (Erithacus Software, Surrey, UK).
(§3) Using the methodology described above, examples of the current invention were evaluated for their ability to inhibit β-lactamase enzymes from all four Ambler classifications (A through D). […] NT=Not tested.

The test system of assay [1] is K. pneumoniae producing the Class D carbapenemase OXA-48. As to the kind of experiment: Broth microdilution MIC assay, potentiation of meropenem. It counts as cell-based. Particulars: Fixed Mero 4 μg/mL; CAMHB, 16-20 hours at 37° C. The text has this: (§4) To determine the ability of test compounds to potentiate the inhibition of the growth of bacterial strains that produce beta-lactamase enzymes, classic cell based broth microdilution MIC assays were employed. Six bacteria strains producing beta-lactamase enzymes were used: E. coli expressing the Class A Extended Spectrum Beta-Lactamase (ESBL) CTX-M-15, E. cloacae expressing the Class C P99, K. pneumoniae expressing the Class A carbapenemase KPC-3, P.aeruginosa expressing the Class B carbapenemase VIM-2, K. pneumoniae expressing the class A carbapenemase KPC-2 and the class B carbapenemase VIM-4, and K. pneumoniae producing the Class D carbapenemase OXA-48. The assay was conducted in Cation Adjusted Mueller Hinton Broth (CAMHB, BD #212322, BD Diagnostic Systems, Sparks, Md.). Bacteria strains were grown for 3-5 hours in CAMHB broth. Test compounds were added to a microtiter plate in 2-fold serial dilutions in CAMHB in a final concentration range of 32 μg/mL to 0.015 μg/mL. An overlay of CAMHB containing a Beta-lactam was added to the compounds at a final static concentration of 4 μg/mL. […] In addition to the titration of test compounds the MICs of a panel of control beta-lactams is also tested to ensure the strains are behaving consistently from test to test. Once the test compound and antibiotics are added the plates can be inoculated according to CLSI broth microdilution method. After inoculation, the plates are incubated for 16-20 hours at 37° C., then the Minimal Inhibitory Concentration (MIC) of the test compound is determined visually.
(§5) Using the methodology described above, examples of the current invention were evaluated for their ability to inhibit the growth of β-lactamase-producing bacteria in the presence of a β-lactam antibiotic.

The subject of assay [2] is K. pneumoniae expressing the Class A carbapenemase KPC-3. The assay is described as above. Format: cell-based. Particulars: Fixed Mero 4 μg/mL; CAMHB, 16-20 hours at 37° C.
Description: as §4, §5

A further assay concerns the target T2, OXA-48 (Klebsiella pneumoniae, UniProt Q6XEC0).
T2 construct: made in house; host or cells: E. coli BL21(DE3)
Kind of assay: β-lactamase enzyme inhibition assay, OXA-48 (nitrocefin substrate). It counts as biochemical. As to the method:
as §1, §2, §3

Assay [3] relates to E. cloacae expressing the Class C P99. As to the kind of experiment: Broth microdilution MIC assay, potentiation of ceftazidime. It counts as cell-based. Particulars: Fixed CAZ 4 μg/mL; CAMHB, 16-20 hours at 37° C.
Description: as §4, §5
(§6) Representative results are shown in Table 3 where A represents an MIC of the fixed β-lactam antibiotic in the presence of >32 μg/mL of a β-lactamase inhibitor of exemplary compounds, B represents the MIC in the presence of between 8 and 32 μg/mL of a β-lactamase inhibitor of exemplary compounds, and C represents the MIC in the presence of ≤4 μg/mL of a β-lactamase inhibitor of exemplary compounds. NT=Not Tested.

The subject of assay [4] is E. coli expressing the Class A Extended Spectrum Beta-Lactamase (ESBL) CTX-M-15. The assay is described as above. It counts as cell-based. Conditions: Fixed CAZ 4 μg/mL; CAMHB, 16-20 hours at 37° C.
Description: as §4, §5, §6

Assay [5] deals with T3, VIM-2 metallo β-lactamase (Pseudomonas aeruginosa, UniProt Q9K2N0).
T3 construct: made in house; host or cells: E. coli BL21(DE3)
As to the kind of experiment: β-lactamase enzyme inhibition assay, VIM-2 (nitrocefin substrate). Format: biochemical. Particulars: 15 min preincubation at 37° C.; nitrocefin 100 μM, 486 nm; read-out: IC50 VIM-2 (Class B). Here is the method: For VIM-2 metallo β-lactamase, the procedure was identical with the following exceptions, first the protein was not pH adjusted to pH 5 with 50 mM sodium acetate. Second, the chromatography step was changed to a 5 ml Q sepharose anion exchange column pre-equilibrated with 50 mM Hepes pH 7.5, and elution of the protein was achieved by a linear gradient of NaCl (0-600 mM). Finally, the VIM-2 purification required a second run (3rd step) on the Q sepharose anion exchange column to achieve acceptable purity (>90%).
as §2, §3

A further assay addresses T4, KPC-2 (Klebsiella pneumoniae, UniProt Q9F663).
T4 construct: made in house; host or cells: E. coli BL21(DE3)
As to the kind of experiment: β-lactamase enzyme inhibition assay, KPC-2 (imipenem substrate). It counts as biochemical. Here is the method:
as §1, §2, §3

A further assay has as its target T5, SHV-5 (Klebsiella pneumoniae, UniProt P0A3M1).
T5 construct: made in house; host or cells: E. coli BL21(DE3)
Kind of assay: β-lactamase enzyme inhibition assay, SHV-5 (cefotaxime substrate). It counts as biochemical. As to the method:
as §1, §2, §3

In assay [6] the test system is P.aeruginosa expressing the Class B carbapenemase VIM-2. Kind of assay: Broth microdilution MIC assay, potentiation of meropenem. Format: cell-based. Particulars: Fixed Mero 4 μg/mL; CAMHB, 16-20 hours at 37° C.
Description: as §4, §5, §6

Assay [7] concerns K. pneumoniae expressing the class A carbapenemase KPC-2 and the class B carbapenemase VIM-4. The description is as above. It counts as cell-based. Particulars: Fixed Mero 4 μg/mL; CAMHB, 16-20 hours at 37° C.
Description: as §4, §5, §6

T4 sequence (Q9F663 25-293 limits assumed): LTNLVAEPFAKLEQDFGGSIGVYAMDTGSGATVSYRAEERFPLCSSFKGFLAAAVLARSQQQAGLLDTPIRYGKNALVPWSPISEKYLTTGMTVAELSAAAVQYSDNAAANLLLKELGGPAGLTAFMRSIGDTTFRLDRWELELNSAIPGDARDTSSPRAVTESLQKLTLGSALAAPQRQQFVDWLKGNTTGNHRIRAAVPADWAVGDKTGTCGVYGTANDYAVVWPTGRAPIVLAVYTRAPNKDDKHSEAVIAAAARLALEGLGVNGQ
T1 sequence (P05364 21-381): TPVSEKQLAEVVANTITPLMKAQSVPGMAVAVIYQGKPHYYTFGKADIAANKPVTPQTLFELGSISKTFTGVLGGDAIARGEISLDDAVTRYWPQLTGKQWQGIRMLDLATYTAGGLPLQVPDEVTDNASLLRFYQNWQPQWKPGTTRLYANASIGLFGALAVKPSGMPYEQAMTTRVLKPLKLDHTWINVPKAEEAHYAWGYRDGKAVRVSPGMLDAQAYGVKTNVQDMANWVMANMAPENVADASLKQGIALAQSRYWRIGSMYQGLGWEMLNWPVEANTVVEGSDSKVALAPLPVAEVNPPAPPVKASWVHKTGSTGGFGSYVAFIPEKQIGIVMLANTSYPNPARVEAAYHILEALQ
T2 sequence (Q6XEC0 23-265 limits assumed): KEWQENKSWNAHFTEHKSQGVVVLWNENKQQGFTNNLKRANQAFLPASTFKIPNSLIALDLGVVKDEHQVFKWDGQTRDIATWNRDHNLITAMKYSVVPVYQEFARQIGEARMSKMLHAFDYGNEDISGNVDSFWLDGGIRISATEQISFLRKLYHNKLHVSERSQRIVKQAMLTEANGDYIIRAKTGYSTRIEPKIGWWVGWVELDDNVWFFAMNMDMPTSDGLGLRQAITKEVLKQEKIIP
T5 sequence (P0A3M1 22-286): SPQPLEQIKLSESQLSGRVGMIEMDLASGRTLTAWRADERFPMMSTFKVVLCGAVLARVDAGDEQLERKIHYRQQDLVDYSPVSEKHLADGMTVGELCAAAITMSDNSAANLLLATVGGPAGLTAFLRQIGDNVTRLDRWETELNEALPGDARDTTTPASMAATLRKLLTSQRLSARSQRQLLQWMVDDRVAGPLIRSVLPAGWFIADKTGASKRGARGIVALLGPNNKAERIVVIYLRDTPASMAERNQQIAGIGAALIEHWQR

`CC(F)(F)CC(=O)N[C@H]1Cc2cccc(C(=O)O)c2OB1O` [Example 3, (R)-3-(3,3-difluorobutanamido)-2-hydroxy-3,4-dihydro-2H-benzo [e][1,2]oxaborinine-8-carboxylic acid]: the IC50 against p99 AmpC is less than 0.1 µM; against OXA-48, 0.1 to 1 µM; in [5], 1 to 10 µM; at KPC-2, 0.1 to 1 µM; against SHV-5, less than 0.1 µM. Moreover, in assay [1], the “MIC (μg/mL) of exemplary compounds in presence of fixed β-lactams, K. P. 11978 OXA-48” value is on record as “C (C represents the MIC in the presence of ≤4 μg/mL of a β-lactamase inhibitor)”. Moreover, the “MIC (μg/mL) of exemplary compounds in presence of fixed β-lactams, K. P. 156319 KPC-3” value in assay [2] was “C (C represents the MIC in the presence of ≤4 μg/mL of a β-lactamase inhibitor)”. Moreover, the “MIC (μg/mL) of exemplary compounds in presence of fixed β-lactams, E. cl. 144200 p99 AmpC” value in [3] was “C (C represents the MIC in the presence of ≤4 μg/mL of a β-lactamase inhibitor)”. Moreover, in [4], the “MIC (μg/mL) of exemplary compounds in presence of fixed β-lactams, E. coli ESBL4 CTX-M-15” value is recorded as “C (C represents the MIC in the presence of ≤4 μg/mL of a β-lactamase inhibitor)”. The “MIC (μg/mL) of exemplary compounds in presence of fixed β-lactams, P. aerug. 2775 VIM-2” value in assay [6] is reported as “C (C represents the MIC in the presence of ≤4 μg/mL of a β-lactamase inhibitor)”. The “MIC (μg/mL) of exemplary compounds in presence of fixed β-lactams, K.P. A-1797 KPC-2 VIM-4” value in assay [7] was “C (C represents the MIC in the presence of ≤4 μg/mL of a β-lactamase inhibitor)”.

As to `CC(F)(F)CCC(=O)N[C@H]1Cc2cccc(C(=O)O)c2OB1O` [Example 85, (R)-3-(4,4-Difluoro-pentanoylamino)-2-hydroxy-3,4-dihydro-2H -benzo[e][1,2]oxaborinine-8-carboxylic acid], the IC50 on p99 AmpC was less than 0.1 µM; against OXA-48 it was 1 to 10 µM; in [5], 1 to 10 µM; against KPC-2 it was less than 0.1 µM; against SHV-5 it was less than 0.1 µM. Also, in [1], the “MIC (μg/mL) of exemplary compounds in presence of fixed β-lactams, K. P. 11978 OXA-48” value is “C (C represents the MIC in the presence of ≤4 μg/mL of a β-lactamase inhibitor)”. Also, the “MIC (μg/mL) of exemplary compounds in presence of fixed β-lactams, K. P. 156319 KPC-3” value in assay [2] was “C (C represents the MIC in the presence of ≤4 μg/mL of a β-lactamase inhibitor)”. The “MIC (μg/mL) of exemplary compounds in presence of fixed β-lactams, E. cl. 144200 p99 AmpC” value in assay [3] is “C (C represents the MIC in the presence of ≤4 μg/mL of a β-lactamase inhibitor)”. For the same molecule, in assay [4], the “MIC (μg/mL) of exemplary compounds in presence of fixed β-lactams, E. coli ESBL4 CTX-M-15” value is reported as “C (C represents the MIC in the presence of ≤4 μg/mL of a β-lactamase inhibitor)”. Moreover, the “MIC (μg/mL) of exemplary compounds in presence of fixed β-lactams, P. aerug. 2775 VIM-2” value in assay [6] is recorded as “C (C represents the MIC in the presence of ≤4 μg/mL of a β-lactamase inhibitor)”. In [7], the “MIC (μg/mL) of exemplary compounds in presence of fixed β-lactams, K.P. A-1797 KPC-2 VIM-4” value was “B (B represents the MIC in the presence of between 8 and 32 μg/mL of a β-lactamase inhibitor)”.
